In patent publication US5245034A, “Compound having vessel smooth muscle relaxation activity” (Hidaka; Kiroyoshi, priority 1988, dated 1993):
Structures can show the parent of a compound that is named as a salt.

Key:
[1] = molecular target: Calmodulin-Dependent Phosphodiesterase (Ca^2+ PDE); experiment: Calmodulin-Dependent Phosphodiesterase Inhibition (Ca^2+ PDE); type: biochemical, rat; conditions: [^3 H]-cGMP, 30° C.
Experimental: Phosphodiesterase (Ca^2+ PDE)Ca^2+ PDE was partially purified from the brain of rat by DEAE-Sepharose column chromatography.
Calmodulin was purified from the calf brain using a calmodulin inhibitor W-7 affinity column.
A reaction mixture contained 20 μl of 500 mM Tris-HCl (pH 8.0), 20 μl of 50 mM MgCl2, 20 μl of 2 mM CaCl2 (or 10 mM EGTA), 20 μl of 1 mg/ml bovine serum albumin, PDE, […] of calmodulin, test sample and distilled water to make total volume 200 μl. To the mixture was added 20 μl of 4 μM [^3 H]-cGMP (2.5 μCi/ml), the mixture was incubated at 30° C. for 15 minutes, and then heated in boiling water for 3 to 5 minutes to terminate the reaction, and cooled in ice-water bath. 20 μg of 5'-nucleotidase (Snake venum) was added to the mixture, and the mixture was again incubated at 30° C. for 10 minutes. After addition of about 2 ml of water, the sample was applied to a cation exchange resin column (Biorad AG.AG50W-X4 to adsorbe the [^3 H]-guanosine and additionally about 2 ml of washing water for the sample was added to the column. The column was washed with about 20 ml of water, and the adsorbed [^3 H]-guanosine was eluted with 3 ml of 3N NH4 OH, and the elute was directly received by a vial. After an addition of 10 ml of an emulsified scintillation solution (ACS-II, AMERSHAM) the radio activity was measured by a scintillation counter LS7500 (Beckmann). The enzyme activity in the presence of calmodulin was taken as […], and a concentration of a test compound in μM which provides a 50% inhibition was expressed as IC50.

[2] = tested on: superior mesenteric artery (contracted by potassium chloride); experiment: Vessel Smooth Muscle Relaxation Action (V.R.); type: cell-based, rabbit; conditions: Oryctolagus cuniculus; concentration relaxing KCl-contracted strain to 50%; cumulative administration; read-out: V.R. (ED50)
Description: The specimen was suspended by loading a strain in Krebs-Henseleit solution through which an oxygen gas containing 5% carbon dioxide was bubbled. The specimen was contracted by adding potassium chloride to maintain a predetermined strain. Thereafter, a test compound was cumulatively administrated.

| Compound | IC50 [1] | EC50 [2] |
| --- | --- | --- |
| CN(C(Cc1cnc[nH]1)CN1CCN(c2ccccc2)CC1)S(=O)(=O)c1cccc2cnccc12 (stereo not drawn) [Example 4, N-[1-(Imidazol-4(5)-Yl-Methyl)-2-(4 -Phenylpiperazinyl)Ethyl]-N-Methyl-5-Isoquinoline Sulfonamide] | 53 µM | 12 µM |
| O=C(C(Cc1ccc([N+](=O)[O-])cc1)NS(=O)(=O)c1cccc2cnccc12)N1CCN(c2ccccc2)CC1 (stereo not drawn) [Example 11, 1-[N-(5-Isoquinolinesulfonyl)-P-Nitrophenylalanyl]-4-Phenylpiperazine] | 59 µM | – |
| CN(C(Cc1ccc(N)cc1)C(=O)N1CCN(c2ccccc2)CC1)S(=O)(=O)c1cccc2cnccc12 (stereo not drawn) [Example 13, 1-[P-Amino-N-(5-Isoquinolinesulfonyl)-N-Methylalanyl]-4-Phenylpiperazine] | 15 µM | 1.2 µM |
| Cc1ccc(S(=O)(=O)Nc2ccc(CC(NS(=O)(=O)c3cccc4cnccc34)C(=O)N3CCN(c4ccccc4)CC3)cc2)cc1 (stereo not drawn) [Example 15, 1-[N-(5-Isoquinolinesulfonyl)-P-(P-Toluenesulfonylamino)Phenylalanyl]-4-Phenylpiperazine] | 43 µM | – |
| CN(C(Cc1ccc(NS(C)(=O)=O)cc1)C(=O)N1CCN(c2ccccc2)CC1)S(=O)(=O)c1cccc2cnccc12 (stereo not drawn) [Example 19, 1-[N-(5-Isoquinolinesulfonyl)-P-Methanesulfonylamino-N-Methylphenylalanyl]-4-Phenylpiperazine] | 20 µM | 22 µM |
| CN(C(Cc1ccc(NS(=O)(=O)c2cccc3ccccc23)cc1)C(=O)N1CCN(c2ccccc2)CC1)S(=O)(=O)c1cccc2cnccc12 (stereo not drawn) [Example 20, 1-[N-(5-isoquinolinesulfonyl)-N-methyl-p-(1-naphtharenesulfonylamino)phenylalanyl]-4-phenylpiperazine] | 23 µM | 1 µM |
| CN(c1ccc(CC(C(=O)N2CCN(c3ccccc3)CC2)N(C)S(=O)(=O)c2cccc3cnccc23)cc1)S(=O)(=O)c1cccc2cnccc12 (stereo not drawn) [Example 23, 1-{N-(5-Isoquinolinesulfonyl)-P-[N'-(5-Isoquinolinesulfonyl)-N'-Methylamino]-N-Methylphenylalanyl}-4-Phenylpiperazine] | 66 µM | 0.25 µM |
| CN(c1ccc(CC(C(=O)N2CCN(c3ccccc3)CC2)N(C)S(=O)(=O)c2cccc3cnccc23)cc1)S(C)(=O)=O (stereo not drawn) [Example 24, 1-[N-(5-isoquinolinesulfonyl)-p-(N'-methanesulfonyl-N'-methylamino) N-methylphenylalanyl]-4-phenylpiperazine] | 63 µM | 8.3 µM |
| CN(c1ccc(CC(C(=O)N2CCN(c3ccccc3)CC2)N(C)S(=O)(=O)c2cccc3cnccc23)cc1)S(=O)(=O)c1cccc2ccccc12 (stereo not drawn) [Example 25, 1-{N-(5-isoquinolinesulfonyl)-N-methyl-p-[N'-methyl-N'-(1-naphtharenesulfonyl)amino]phenylalanyl}-4-phenylpiperazine] | 70 µM | 0.55 µM |
| CN(C(Cc1ccc(O)cc1)CN1CCN(c2ccccc2)CC1)S(=O)(=O)c1cccc2cnccc12 (stereo not drawn) [Example 36, N-[1-(P-Hydroxybenzyl)-2-(4-Phenylpiperazinyl)Ethyl]-N-Methyl-5-Isoquinolinesulfonamide] | 10.5 µM | 0.81 µM |
| O=S(=O)(NC(Cc1ccc(OS(=O)(=O)c2cccc3cnccc23)cc1)CN1CCN(c2ccc(F)cc2)CC1)c1cccc2cnccc12 (stereo not drawn) [Example 48] | 6.5 µM | 3.9 µM |
| CN(C(Cc1ccc(OS(=O)(=O)c2cccc3ccccc23)cc1)CN1CCN(c2ccccc2)CC1)S(=O)(=O)c1cccc2ccccc12 (stereo not drawn) [Example 57, N-methyl-N-{1-[p-(α-naphtharenesulfonyloxy) -benzyl]-2-(4-phenylpiperazinyl)ethyl}-α-naphtharenesulfonamide] | 50 µM | 0.75 µM |
| CN(C(Cc1ccc(O)cc1)CN1CCN(c2ccccc2)CC1)S(=O)(=O)c1cccc2ccccc12 (stereo not drawn) [Example 58, N-[1-(p-hydroxybenzyl)-2-(4-phenylpiperazinyl)ethyl]-N-methyl-α-naphtharenesulfonamide] | 63 µM | 0.25 µM |
| O=S(=O)(NC(Cc1ccc(OS(=O)(=O)c2cccc3cnccc23)cc1)CN1CCCN(c2ccccc2)CC1)c1cccc2cnccc12 (stereo not drawn) [Example 80] | 13 µM | 2.4 µM |
| O=S(=O)(NC(Cc1ccc(O)cc1)CN1CCCN(c2ccccc2)CC1)c1cccc2cnccc12 (stereo not drawn) [Example 82, N-[1-(P-Hydroxybenzyl)-2-(4-Phenylhomopiperazinyl)Ethyl]-5-Isoquinolinesulfonamide] | 33 µM | 0.86 µM |
| CN(C(Cc1ccc(O)cc1)CN1CCCN(c2ccccc2)CC1)S(=O)(=O)c1cccc2cnccc12 (stereo not drawn) [Example 83, N-[1-(P-Hydroxybenzyl)-2-(4-Phenylhomopiperazinyl)Ethyl]-N-Methyl-5-Isoquinolinesulfonamide] | 24 µM | 0.39 µM |
| Cc1ccc(COC2CCN(CC(Cc3ccc(O)cc3)NS(=O)(=O)c3cccc4cnccc34)CC2)cc1 (stereo not drawn) [Example 85, N-{1-(P-Hydroxybenzyl)-2-{4-(P-Methylbenzyloxy)Piperidino]Ethyl}-Isoquinolinesulfonamide] | 75 µM | – |

| Compound | IC50 [1] | EC50 [2] |
| --- | --- | --- |
| O=S(=O)(NC(Cc1ccc(OS(=O)(=O)c2cccc3cnccc23)cc1)CN1CCC(OCc2ccc(Cl)c(Cl)c2)CC1)c1cccc2cnccc12 (stereo not drawn) [Example 86] | 24 µM | 13 µM |
| CN(C(Cc1ccc(OS(=O)(=O)c2cccc3cnccc23)cc1)CN1CCC(c2ccccc2)CC1)S(=O)(=O)c1cccc2cnccc12 (stereo not drawn) [Example 92, N-{1-[p-(5-isoquinolinesulfonyloxy)benzyl]-2-(4-phenylpiperidino)ethyl}-N-methyl-5-isoquinolinesulfonamide] | 63 µM | – |
| CC(C=Cc1ccco1)NCCNS(=O)(=O)c1cccc2cnccc12 (stereo not drawn) [Example 165, N-{2-[3-(2-Furyl)-1-Methyl-2-Propenylamino]Ethyl}-5-Isoquinolinesulfonamide] | – | 11 µM |
| COc1ccc(C=CC(C)NCCNS(=O)(=O)c2cccc3cnccc23)cc1 (stereo not drawn) [Example 169, N-2-(4-Methoxy-α-Methylcinnamylamino)ethyll-5-Isoquinolinesulfonamide] | – | 4.6 µM |
| CC(C=Cc1ccc(O)cc1)NCCNS(=O)(=O)c1cccc2cnccc12 (stereo not drawn) [Example 170] | – | 5.2 µM |
| CC(C=Cc1ccccc1)NCCCNS(=O)(=O)c1cccc2cnccc12 (stereo not drawn) [Example 171, N-[3-(α-Methylcinnamylamino)Propyl]-5-Isoquinolinesulfonamide] | – | 5.4 µM |
| CN(C)c1ccc(C=CCNCCNS(=O)(=O)c2cccc3cnccc23)cc1 [Example 174] | – | 11 µM |
| COCCOCOc1ccc(C=CCNCCNS(=O)(=O)c2cccc3cnccc23)cc1 [Example 182, N-{2-[4-(2-Methoxyethoxy)Methoxycinnamylamino]Ethyl}-5-Isoquinolinesulfonamide] | – | 17 µM |
| O=S(=O)(NCCNCC=Cc1ccc(O)cc1)c1cccc2cnccc12 [Example 183, N-[2-(4-Hydroxycinnamylamino)ethyl]-5-Isoquinolinesulfonamide] | – | 2.8 µM |
| COc1cc(C=CCNCCNS(=O)(=O)c2cccc3cnccc23)cc(OC)c1OC [Example 185, N-[2-(3,4,5-Trimethoxycinnamylamino)ethyl]-5-Isoquinolinesulfonamide] | – | 0.21 µM |
| O=S(=O)(NCCCNCC=Cc1ccccc1)c1cccc2cnccc12 [Example 188, N-(3-Cinnamylaminopropyl)-5-Isoquinolinesulfonamide] | – | 4 µM |
| O=S(=O)(NCCN(CC#Cc1ccc(Cl)cc1)CC#Cc1ccc(Cl)cc1)c1cccc2cnccc12 [Example 189-II, N-{2-[Bis-(3-((4-Chlorophenyl))-2-Propynyl)Amino]Ethyl}-5-Isoquinolinesulfonamide] | – | 0.2 µM |
| CN(CC=Cc1ccc(Cl)cc1)CCNS(=O)(=O)c1cccc2cnccc12 [Example 190, N-[2-(4-Chloro-N-Methylcinnamylamino)ethyl]-5-Isoquinolinesulfonamide] | – | 0.19 µM |
| O=S(=O)(NCCN(CC=Cc1ccc(Cl)cc1)Cc1ccc(O)cc1)c1cccc2cnccc12 [Example 194, N-{2-[4-Chloro-N-(4-Hydroxybenzyl)Cinnamylamino]ethyl}-5-Isoquinolinesulfonamide] | 80 µM | – |
| O=S(=O)(NCCNCC=Cc1ccccc1)c1cccc2cnccc12 [Example 201, N-(2-Cinnamylaminoethyl)-5-Isoquinolinesulfonamide.1/2 Fumarate] | – | 3.2 µM |
| CC(C=Cc1ccccc1)NCCNS(=O)(=O)c1cccc2cnccc12 (stereo not drawn) [Example 202, N-[2-(α-Methylcinnamylamino)Ethyl]-5-Isoquinolinesulfonamide 1/2 Fumarate] | – | 1.3 µM |
